# What was measured:
# [1] = instrument: TW, calibrated with phosphatidylcholines (ESI+) and phosphatidylethanolamines (ESI-)
# [2] = instrument: TW, calibrated with phosphatidylcholines (ESI+) and phosphatidylethanolamines (ESI-); remark: listed apart in the source
# [3] = instrument: DT, single field, calibrated with Agilent tune mix (Agilent)
# [4] = [M+H]+; instrument: DT; stepped-field
# [5] = [M+Na]+; instrument: DT; stepped-field
# [6] = [M+H]+; instrument: DT; single field, calibrated with Agilent tune mix (Agilent)
smiles,measurement,setting,value
CCCCCC/C=C\CCCCCCCCCC(=O)OC(COC(=O)CCCCCCCCCCCCCCC)COP(=O)([O-])OCC(O)COC(=O)C(C)[NH3+] (configuration not stated) [AlaPG(34:1)],collision cross section (N2),[1]; [M+H]+,291.7 Å²
same,collision cross section (N2),[1]; [M+K]+,293.6 Å²
same,collision cross section (N2),[1]; [M+Na]+,294.3 Å²
CCCCCCCCCCCCCC=CCC(=O)OC[C@H](CO[C@@H]1O[C@H](CO[C@H]2O[C@H](CO)[C@H](O)C(O)C2O)[C@H](O)C(O)C1O)OC(=O)CC=CCCCCCCCCCCCCC (some centres not stated) [DGDG(16:0/18:2)],collision cross section (N2),[1]; [M+CH3COO]-,312.7 Å²
same,collision cross section (N2),[1]; [M+Cl]-,304.9 Å²
same,collision cross section (N2),[1]; [M+NH4]+,307.5 Å²
same,collision cross section (N2),[1]; [M+Na]+,306.5 Å²
same,collision cross section (N2),[1]; [M-H]-,301.9 Å²
CCCCCCCCCCC=CCC=CCC(=O)OC[C@H](CO[C@@H]1O[C@H](CO[C@H]2O[C@H](CO)[C@H](O)C(O)C2O)[C@H](O)C(O)C1O)OC(=O)CC=CCC=CCCCCCCCCCC (some centres not stated) [DGDG(16:1/18:3)],collision cross section (N2),[1]; [M+Cl]-,303.2 Å²
same,collision cross section (N2),[1]; [M+NH4]+,303.5 Å²
same,collision cross section (N2),[1]; [M+Na]+,301.1 Å²
same,collision cross section (N2),[1]; [M-H]-,301.4 Å²
CCCCCCCC=CCC=CCC=CCC(=O)OC[C@H](CO[C@@H]1O[C@H](CO[C@H]2O[C@H](CO)[C@H](O)C(O)C2O)[C@H](O)C(O)C1O)OC(=O)CC=CCC=CCC=CCCCCCCC (some centres not stated) [DGDG(16:3/18:3)],collision cross section (N2),[1]; [M+CH3COO]-,305.8 Å²
same,collision cross section (N2),[1]; [M+Cl]-,299.9 Å²
same,collision cross section (N2),[1]; [M+K]+,295.2 Å²
same,collision cross section (N2),[1]; [M+NH4]+,296.3 Å²
same,collision cross section (N2),[1]; [M+Na]+,294.9 Å²
same,collision cross section (N2),[1]; [M-H]-,296.1 Å²
CCCCCCCCC=CCC=CCC=CCC(=O)OC[C@H](CO[C@@H]1O[C@H](CO[C@H]2O[C@H](CO)[C@H](O)C(O)C2O)[C@H](O)C(O)C1O)OC(=O)CC=CCC=CCC=CCCCCCCCC (some centres not stated) [DGDG(18:3/18:3)],collision cross section (N2),[1]; [M+CH3COO]-,313.7 Å²
same,collision cross section (N2),[1]; [M+Cl]-,305.9 Å²
same,collision cross section (N2),[1]; [M+K]+,302.5 Å²
same,collision cross section (N2),[1]; [M+NH4]+,303.2 Å²
same,collision cross section (N2),[1]; [M+Na]+,301.9 Å²
same,collision cross section (N2),[1]; [M-H]-,303.3 Å²
CCCCCCCCCCCCC=CC[C@@H](O)[C@H](CO[C@@H]1O[C@H](CO)[C@@H](O)C(O)C1O)NC(=O)CC=CCCCCCCCCCCCCCCCCCCCC (some centres not stated) [GlcCer(d18:1/24:1)],collision cross section (N2),[2]; [M+H]+,298.2 Å²
same,collision cross section (N2),[2]; [M+Na]+,297.3 Å²
CCCCCCCCCCCCCCCC(=O)OCC(O)COP(=O)([O-])OCC[N+](C)(C)C (configuration not stated) [LPC(16:0)],collision cross section (N2),[2]; [M+H]+,228.5 Å²
same,collision cross section (N2),[3]; [M+HCOO]-,235 Å²
same,collision cross section (N2),[3]; [M+H]+,229.8 Å²
same,collision cross section (N2),[4],233.3 Å²
CCCCC/C=C\C/C=C\C/C=C\CCCCCCC(=O)OC[C@@H](O)COP(=O)([O-])OCC[N+](C)(C)C [LPC(20:3)],collision cross section (N2),[2]; [M+H]+,239 Å²
CC/C=C\C/C=C\C/C=C\C/C=C\CCCCCCC(=O)OC[C@@H](O)COP(=O)([O-])OCC[N+](C)(C)C [LPC(20:4)],collision cross section (N2),[2]; [M+H]+,232.4 Å²
CCCCC/C=C\C/C=C\CCCCCCCC(=O)O[C@H](COC(=O)CCCCCCCCCCCCCCCCC)COP(=O)(O)O [PA(36:2)],collision cross section (N2),[2]; [M-H]-,259.5 Å²
same,collision cross section (N2),[3]; [M+NH4]+,274.5 Å²
same,collision cross section (N2),[3]; [M+Na]+,274 Å²
same,collision cross section (N2),[3]; [M-H]-,260.2 Å²
CCCCC/C=C\C/C=C\C/C=C\CCCCC(=O)OC[C@H](COP(=O)([O-])OCC[N+](C)(C)C)OC(=O)CCCCCCC/C=C\CCCCCCCC [PC(36:4)],collision cross section (N2),[2]; [M+CH3COO]-,290.8 Å²
same,collision cross section (N2),[2]; [M+H]+,286 Å²
same,collision cross section (N2),[3]; [M+HCOO]-,288.4 Å²
CCCCC/C=C\C/C=C\CCCCCCCCCCCC(=O)O[C@H](COC(=O)CCCCCCC/C=C\C/C=C\CCCCC)COP(=O)([O-])OCC[N+](C)(C)C [PC(40:4)],collision cross section (N2),[2]; [M+H]+,296.1 Å²
same,collision cross section (N2),[3]; [M+H]+,300.2 Å²
CC/C=C\C/C=C\C/C=C\C/C=C\CCCCC(=O)OC[C@H](COP(=O)([O-])OCC[N+](C)(C)C)OC(=O)CCCCC/C=C\C/C=C\C/C=C\C/C=C\CCCCC [PC(40:8)],collision cross section (N2),[2]; [M+H]+,291.6 Å²
CCCCC/C=C\C/C=C\C/C=C\CCCCCCC(=O)O[C@H](COC(=O)CCCCCCC/C=C\C/C=C\CCCCC)COP(=O)(O)OCCN [PE(38:5)],collision cross section (N2),[2]; [M+H]+,276 Å²
same,collision cross section (N2),[2]; [M-H]-,269.5 Å²
same,collision cross section (N2),[3]; [M+H]+,280.1 Å²
same,collision cross section (N2),[3]; [M-H]-,271.2 Å²
same,collision cross section (N2),[5],287.2 Å²
CC/C=C\C/C=C\C/C=C\C/C=C\C/C=C\CCCC(=O)OC[C@H](COP(=O)(O)OCCN)OC(=O)CCCCC/C=C\C/C=C\C/C=C\C/C=C\CCCCC [PE(42:9)],collision cross section (N2),[2]; [M+H]+,288.2 Å²
same,collision cross section (N2),[5],295.6 Å²
CC/C=C\C/C=C\C/C=C\C/C=C\C/C=C\CCCCCC(=O)O[C@H](COC(=O)CCC/C=C\C/C=C\C/C=C\C/C=C\C/C=C\CC)COP(=O)(O)OCCN [PE(42:10)],collision cross section (N2),[2]; [M+H]+,285 Å²
same,collision cross section (N2),[5],291 Å²
CCCC/C=C\CCCCCCCC(=O)O[C@H](CO/C=C\CCCCCCCCCCCCCCCCCC)COP(=O)(O)OCCN [PE(p34:1)],collision cross section (N2),[2]; [M-H]-,262.1 Å²
same,collision cross section (N2),[3]; [M+H]+,273.2 Å²
same,collision cross section (N2),[3]; [M+Na]+,276.9 Å²
same,collision cross section (N2),[3]; [M-H]-,262.2 Å²
CCCCCC/C=C\CCCCCCCC(=O)O[C@H](CO/C=C\CCCCCCCCCCCCCCCCCC)COP(=O)(O)OCCN [PE(p36:1)],collision cross section (N2),[2]; [M+H]+,279.7 Å²
same,collision cross section (N2),[2]; [M-H]-,267.3 Å²
CCCCC/C=C\C/C=C\CCCCCCCCCC(=O)O[C@H](CO/C=C\CCCCCCCCCCCCCC)COP(=O)(O)OCCN [PE(p36:2)],collision cross section (N2),[2]; [M+H]+,278.1 Å²
same,collision cross section (N2),[2]; [M-H]-,266.5 Å²
same,collision cross section (N2),[3]; [M+H]+,277.1 Å²
same,collision cross section (N2),[3]; [M-H]-,267.6 Å²
CC/C=C\C/C=C\C/C=C\C/C=C\C/C=C\CCCC(=O)O[C@H](CO/C=C\CCCCCCCCCCCCCC)COP(=O)(O)OCCN [PE(p36:5)],collision cross section (N2),[2]; [M+H]+,274.2 Å²
CCCCC/C=C\C/C=C\C/C=C\CCCCCCC(=O)O[C@H](CO/C=C\CCCCCCCCCCCCCCCC)COP(=O)(O)OCCN [PE(p38:3)],collision cross section (N2),[2]; [M+H]+,281.4 Å²
same,collision cross section (N2),[2]; [M-H]-,270.9 Å²
CCCCC/C=C\C/C=C\C/C=C\C/C=C\CCCCCC(=O)O[C@H](CO/C=C\CCCCCCCCCCCCCC)COP(=O)(O)OCCN [PE(p38:4)],collision cross section (N2),[2]; [M+H]+,280.6 Å²
same,collision cross section (N2),[2]; [M-H]-,270.3 Å²
same,collision cross section (N2),[3]; [M+H]+,281.5 Å²
CC/C=C\C/C=C\C/C=C\C/C=C\CCCCC(=O)O[C@H](COC(=O)CCCCCCCCCCC/C=C\C/C=C\CCCCC)COP(=O)(O)OC[C@@H](O)CO [PG(40:6)],collision cross section (N2),[2]; [M+Na]+,290 Å²
same,collision cross section (N2),[2]; [M-H]-,281.9 Å²
same,collision cross section (N2),[3]; [M+NH4]+,296.6 Å²
same,collision cross section (N2),[3]; [M+Na]+,292.4 Å²
CCCCCCCCCC/C=C\CCCCCCCCCC(=O)O[C@H](COC(=O)CCCCCCCCCCCCC)COP(=O)(O)O[C@H]1C(O)C(O)C(O)[C@@H](O)C1O (some centres not stated) [PI(36:1)],collision cross section (N2),[2]; [M+Na]+,297.2 Å²
same,collision cross section (N2),[2]; [M-H]-,289.6 Å²
same,collision cross section (N2),[3]; [M+H]+,301.6 Å²
same,collision cross section (N2),[3]; [M+NH4]+,302.2 Å²
same,collision cross section (N2),[3]; [M+Na]+,299 Å²
same,collision cross section (N2),[3]; [M-H]-,290.5 Å²
CCCCC/C=C\C/C=C\C/C=C\C/C=C\CCCC(=O)O[C@H](COC(=O)CCCCCCC/C=C\CCCCCCCC)COP(=O)(O)O[C@H]1C(O)C(O)C(O)[C@@H](OP(=O)(O)O)C1O (some centres not stated) [PIP(38:5)],collision cross section (N2),[2]; [M+H-H2O]+,299.7 Å²
CCCCCCCCCCCCC=CC[C@@H](O)[C@H](COP(=O)([O-])OCC[N+](C)(C)C)NC(=O)CCCCCCCCCCCCCCC [SM(d18:1/16:0)],collision cross section (N2),[2]; [M+H]+,281.1 Å²
CCCCCCCCCCCCC=CC[C@@H](O)[C@H](COP(=O)([O-])OCC[N+](C)(C)C)NC(=O)CCCCCCCCCCCCCCCCC [SM(d18:1/18:0)],collision cross section (N2),[2]; [M+H]+,286.6 Å²
same,collision cross section (N2),[6],290.2 Å²
CCCCCCCCCCCCC=CC[C@@H](O)[C@H](COP(=O)([O-])OCC[N+](C)(C)C)NC(=O)CC=CCCCCCCCCCCCCCCCCCC [SM(d18:1/22:1)],collision cross section (N2),[2]; [M+H]+,295 Å²
